From patent US20240209011A1, “HETEROAROMATIC PHOSPHONIUM SALTS FOR TREATING CANCER” (FLORATEK PHARMA S.A., priority 2021, published 2024) come the findings set out here.

Assay [1] has as its system lung carcinoma cell. Put plainly: Activity against lung carcinoma cells. Conditions: lung carcinoma cell growth; text summary of Tables 14A-14C. It counts as cell-based. Here is the method:
Antitumor activity of the compounds and doxorubicin as a positive control was assessed by using the CellTiter-Blue Cell Viability Assay (Promega, #G8082) or CellTiter-Glow® Luminescent Cell Viability assay (Promega #G7572) according to the manufacturer's instructions. The compounds were tested at 5 or 6 concentrations in half-log increments (highest concentration 30 μM or 100 μM) in duplicate or triplicate well conditions.
Tumor cells were grown at 37° C. in a humidified atmosphere with 5% CO2 in RPMI 1640 or DMEM medium, supplemented with 10% (v/v) fetal calf serum and 50 μg/ml gentamicin for up to 20 passages, and were passaged once or twice weekly. Cells were harvested using TrypLE or PBS buffer containing 1 mM EDTA, and the percentage of viable cells is determined using a CASY Model TI cell counter (OMNI Life Science). Cells were harvested from exponential phase cultures, counted and plated in 96 well flat-bottom microtiter plates at a cell density depending on the cell line's growth rate (4,000-20,000 cells/well depending on the cell line's growth rate, up to 60,000 for hematological cancer cell lines) in RPMI 1640 or DMEM medium supplemented with 10% (v/v) fetal calf serum and 50 μg/ml gentamicin (140 μl/well). Cultures were incubated at 37° C. and 5% CO2 in a humidified atmosphere. After 24 h, 10 μl of test compounds or control medium were added, and left on the cells for another 72 h. Compounds were serially diluted in DMSO, transferred in cell culture medium, and added to the assay plates. The DMSO concentration was kept constant at <0.3% v/v across the assay plate. Viability of cells was quantified by the CellTiter-Blue® cell viability assay (Promega G8081) or CellTiter-Glow® Luminescent Cell Viability assay (Promega #G7572). Fluorescence (FU) was measured by using the EnSpire® multimode plate reader (Perkin Elmer) (excitation X=570 nm, emission λ=600 nm). Luminescence was measured with a microplate luminometer (Promega or PerkinElmer).
Sigmoidal concentration-response curves were fitted to the data points (test-versus-control, T/C values) obtained for each tumor model using 4 parameter non-linear curve fit (Charles River DRS Datawarehouse Software) or with GraphPad prism 5.02 software. IC50 values are reported as absolute IC50 values, being the concentration of test compound at the intersection of the concentration-response curves with T/C=50% Cell lines tested are presented in Table 1.

Assay [2] has as its system pancreatic PDX. Kind of assay: Activity against pancreatic PDX. The class given is cell-based. Conditions: pancreatic PDX growth; summary of Table 20. The method, then:
(§1) PDX-derived cell cultures were obtained from tumors explanted from mice and isolated by mechanical and enzymatic dissociation. […] Cells were harvested and seeded in 96-wells plates at a density of 1.25 to 5×10^3 cells/well for cytotoxicity assays. Cells were incubated 48 h at 37° C. prior to addition of test molecules and vehicle (DMSO, 0.1%) at desired final concentrations. Cell viability was assessed before drugs' addition (To) and 5 days after test molecules addition by measuring ATP cell content using CellTiter-Glo® Luminescent Cell Viability Assay (Promega) according to the manufacturer's instructions. Luciferase activity was measured on a luminometer (PerkinElmer® EnVision™). Each concentration of compounds was tested in triplicate.
(§2) Viability was calculated as a percentage of ATP value compared to vehicle treated controls.
(§3) For PDX primary cell cultures, the tumour tissue was washed with PBS containing antibiotic-antimycotic and non-tumour tissue and necrotic tumour tissues were separated. The tumour tissue was transferred to a new dish and cut into 1-2 mm^3 fragments, resuspended in RPMI-1640 medium and centrifuged at 1,200 rpm for 6 min at room temperature. The pelleted material was resuspended with 15 mL of Tumour Cell Digestion Solution and incubated at 37° C. for 1 hour with agitation. Following further addition of media, centrifugation and passage through a […] cell strainer, the homogenous cell mixture was layered onto 15 mL of Ficoll-Paque PLUS in a 50 mL conical tube and centrifuged for 15 min at 1,600 rpm. The interface cells were collected, washed with media, separated by centrifugation at 1,200 rpm. The cell pellet was resuspended in serum free media supplemented with growth factors. 10,000 cells/wells were plated in a 96 well plate and incubated at 37° C., 5% CO2, 95% air and 100% relative humidity overnight. The cytotoxicity assay was conducted as above. IC50 values represent absolute IC50.

Assay [3] concerns colon PDX. Kind of assay: Activity against colon PDX. The class given is cell-based. Conditions: for selectivity among colon PDX: colon PDX CO-04-0722 and CO-04-0700 versus CO-04-0701; for IC50: growth of colon PDX, Table 8. The method, then:
as §1, §2, §3

Assay [4] has as its system lymphoma PDX. Kind of assay: Activity against lymphoma PDX. It counts as cell-based. The conditions noted are these: lymphoma PDX growth; Table 17. The method, then: as §1, §2, §3
Assay [5] concerns the target T1, ADCK3 (Homo sapiens, UniProt Q8NI60).
T1 construct: purchased Eurofins (KINOMEscan); host or cells: T7 phage in BL21-derived E. coli, or HEK-293
Put plainly: KINOMEscan competition binding assay, Kd. The conditions noted are these: 11-point 3-fold dilution series. Here is the method:
Selected compounds were screened for kinase inhibition using the KINOMEscan™ assay (Eurofins) which is based on a competition binding assay that quantitatively measures the ability of a compound to compete with an immobilized, active-site directed ligand. The assay was performed by combining three components: DNA-tagged kinase; immobilized ligand; and the test compound. The ability of the test compound to compete with the immobilized ligand was measured via quantitative PCR of the DNA tag.
Kinase-tagged T7 phage strains were prepared in an E. coli host derived from the BL21 strain. E. coli were grown to log-phase and infected with T7 phage and incubated with shaking at 32° C. until lysis. The lysates were centrifuged and filtered to remove cell debris. The remaining kinases were produced in HEK-293 cells and subsequently tagged with DNA for qPCR detection. Streptavidin-coated magnetic beads were treated with biotinylated small molecule ligands for 30 minutes at room temperature to generate affinity resins for kinase assays. The liganded beads were blocked with excess biotin and washed with blocking buffer (SeaBlock (Pierce), 1% BSA, 0.05% Tween 20, 1 mM DTT) to remove unbound ligand and to reduce non-specific binding. Binding reactions were assembled by combining kinases, liganded affinity beads, and test compounds in 1× binding buffer (20% SeaBlock, 0.17×PBS, 0.05% Tween 20, 6 mM DTT). Test compounds were prepared as 111× stocks in 100% DMSO. Kds were determined using an 11-point 3-fold compound dilution series with three DMSO control points. All compounds for Kd measurements are distributed by acoustic transfer (non-contact dispensing) in 100% DMSO. The compounds were then diluted directly into the assays such that the final concentration of DMSO was 0.9%. All reactions performed in polypropylene 384-well plate. Each was a final volume of 0.02 ml. The assay plates were incubated at room temperature with shaking for 1 hour and the affinity beads were washed with wash buffer (1×PBS, 0.05% Tween 20). The beads were then resuspended in elution buffer (1×PBS, 0.05% Tween 20, 0.5 μM nonbiotinylated affinity ligand) and incubated at room temperature with shaking for 30 minutes. The kinase concentration in the eluates was measured by qPCR.
Binding constants (Kds) were calculated with a standard dose-response curve using the Hill equation: Response=Background+[Signal−Background/i+(Kd^Hill Slope/Dose^Hill Slope)]. The Hill Slope was set to −1. Curves were fitted using a non-linear least square fit with the Levenberg-Marquardt algorithm.

In general, IC50 refers to the midpoint of a concentration-inhibition curve. A higher IC50 goes with lower potency. One may read the Kd as a measure of binding affinity in units of concentration. High values mean a looser complex, low ones a tighter complex.

T1 sequence (Q8NI60 163-647): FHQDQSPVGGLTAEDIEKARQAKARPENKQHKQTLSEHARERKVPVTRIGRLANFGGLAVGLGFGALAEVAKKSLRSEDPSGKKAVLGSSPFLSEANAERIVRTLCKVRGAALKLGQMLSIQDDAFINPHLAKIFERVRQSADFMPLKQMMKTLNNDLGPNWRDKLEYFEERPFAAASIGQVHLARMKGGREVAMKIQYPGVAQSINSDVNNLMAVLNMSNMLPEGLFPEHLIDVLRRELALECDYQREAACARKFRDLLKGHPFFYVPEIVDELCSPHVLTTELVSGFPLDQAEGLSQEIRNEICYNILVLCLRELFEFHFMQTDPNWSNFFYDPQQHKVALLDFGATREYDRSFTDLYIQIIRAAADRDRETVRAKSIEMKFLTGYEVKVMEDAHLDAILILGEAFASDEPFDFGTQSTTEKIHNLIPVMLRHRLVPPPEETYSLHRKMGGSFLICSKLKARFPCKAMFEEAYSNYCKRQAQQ

`CC(C)NC(=O)Oc1ccc2c(=O)cc(-c3ccc(CCCC[P+](c4ccccc4)(c4ccccc4)c4ccccc4)cc3)oc2c1O` [SND127, 4-[4-[7-(Isopropylcarbamoyloxy)-8-hydroxy-4-oxo-chromen-2-yl]phenyl]butyltriphenylphosphonium bromide] came in with a half-maximal inhibitory concentration (IC50) in assay [1] of under 20 µM.

As to `CCNC(=O)Oc1ccc2c(=O)cc(-c3ccc(CCCC[P+](c4ccccc4)(c4ccccc4)c4ccccc4)cc3)oc2c1OC(=O)NCC.[Br-]` [SND124, 4-[4-[7,8-Bis(ethylcarbamoyloxy)-4-oxo-chromen-2-yl]phenyl]-butyltriphenylphosphonium bromide], the IC50 in assay [2] is under 20 µM; in assay [3] it was under 20 µM; in assay [4], under 5 µM; in assay [1], under 20 µM. Moreover, the “selectivity among colon PDX” value in assay [3] was “marked selectivity toward CO-04-0722 and CO-04-0700”.

Turning to `O=c1cc(-c2ccc(CCCC[P+](c3ccccc3)(c3ccccc3)c3ccccc3)cc2)oc2c(O)c(O)ccc12` [SND118, 4-[4-(7,8-dihydroxy-4-oxo-chromen-2-yl)phenyl]butyltriphenyl-phosphonium bromide], the Kd in assay [5] turned out to be 1.5 µM. For the same compound, the IC50 in assay [1] was under 20 µM.

For `CCNC(=O)Oc1ccc2c(=O)cc(-c3ccc(CCCC[P+](c4ccccc4)(c4ccccc4)c4ccccc4)cc3)oc2c1O.[Br-]` [SND126A, 4-[4-[7-(Ethylcarbamoyloxy)-8-hydroxy-4-oxo-chromen-2-yl]phenyl]butyltriphenylphosphonium bromide], the IC50 was under 20 µM in assay [2], under 20 µM in assay [3] and under 5 µM in assay [4]. Moreover, the “selectivity among colon PDX” value in assay [3] was “marked selectivity toward CO-04-0722 and CO-04-0700”.

For `O=c1cc(-c2ccc(CCCC[P+](c3ccccc3)(c3ccccc3)c3ccccc3)cc2)oc2c3c(ccc12)OCO3.[Br-]` [SND123, 4-[4-(6-oxo-[1,3]dioxolo[4,5-h]chromen-8-yl)phenyl]butyl-triphenylphosphonium bromide], the IC50 is under 20 µM in assay [2], under 20 µM in assay [3], under 5 µM in assay [4] and under 20 µM in assay [1]. The same compound gave a Kd in assay [5] of 0.82 µM.

Consider `COc1c(O)ccc2c(=O)cc(-c3ccc(CCCC[P+](c4ccccc4)(c4ccccc4)c4ccccc4)cc3)oc12.[Br-]` [SND140, (4-(4-(7-hydroxy-8-methoxy-4-oxo-4H-chromen-2-yl)phenyl)butyl)triphenylphosphonium bromide], for which the half-inhibitory concentration (IC50) was under 20 µM in assay [2], under 20 µM in assay [3], under 5 µM in assay [4] and under 20 µM in assay [1]. The compound also came in with a Kd in assay [5] of 0.62 µM.
